Data from the kinase profiling compilation of Christmann-Franck et al. (2016).

Columns and labels:
Assay in all cases: radiometric filter-binding kinase assay, Kinase HotSpot
Details in all cases: compound 0.5 µM; ATP 10 µM
TGFBR1 (human) = TGFBR1 (human) (UniProt P36897)
PDPK1 (human) = PDPK1 (human) (UniProt O15530)
PKN1 (human) = PKN1 (human) (UniProt Q16512)
NEK2 (human) = NEK2 (human) (UniProt P51955)
MELK (human) = MELK (human) (UniProt Q14680)
FGFR2 (human) = FGFR2 (human) (UniProt P21802)
WEE1 (human) = WEE1 (human) (UniProt P30291)
SRMS (human) = SRMS (human) (UniProt Q9H3Y6)
MAPK12 (human) = MAPK12 (human) (UniProt P53778)
MAPK14 (human) = MAPK14 (human) (UniProt Q16539)
RPS6KA1 KD1 KD2 (human) = RPS6KA1 KD1 KD2 (human) (UniProt Q15418)
MST1R (human) = MST1R (human) (UniProt Q04912)
PTK2 (human) = PTK2 (human) (UniProt Q05397)
LTK (human) = LTK (human) (UniProt P29376)
NEK11 (human) = NEK11 (human) (UniProt Q8NG66)
CSNK2A1 (human) = CSNK2A1 (human) (UniProt P68400)
CDK4 CCND1 (human) = CDK4 CCND1 (human) (UniProt P24385+P11802)
PRKCZ (human) = PRKCZ (human) (UniProt Q05513)
CAMK4 (human) = CAMK4 (human) (UniProt Q16566)
TAOK3 (human) = TAOK3 (human) (UniProt Q9H2K8)
TEK (human) = TEK (human) (UniProt Q02763)
GRK5 (human) = GRK5 (human) (UniProt P34947)
MAP3K9 (human) = MAP3K9 (human) (UniProt P80192)
SGK2 (human) = SGK2 (human) (UniProt Q9HBY8)
CAMK1D (human) = CAMK1D (human) (UniProt Q8IU85)
SRPK2 (human) = SRPK2 (human) (UniProt P78362)
PRKCB2 (human) = PRKCB2 (human) (UniProt P05771)
RPS6KB2 (human) = RPS6KB2 (human) (UniProt Q9UBS0)
CSNK1G2 (human) = CSNK1G2 (human) (UniProt P78368)
CAMKK1 (human) = CAMKK1 (human) (UniProt Q8N5S9)
NLK (human) = NLK (human) (UniProt Q9UBE8)
TSSK1B (human) = TSSK1B (human) (UniProt Q9BXA7)
PAK4 (human) = PAK4 (human) (UniProt O96013)
HCK (human) = HCK (human) (UniProt P08631)
LRRK2 (human) = LRRK2 (human) (UniProt Q5S007)
WNK2 (human) = WNK2 (human) (UniProt Q9Y3S1)
TYRO3 (human) = TYRO3 (human) (UniProt Q06418)
MAPK8 (human) = MAPK8 (human) (UniProt P45983)
DYRK2 (human) = DYRK2 (human) (UniProt Q92630)
YES1 (human) = YES1 (human) (UniProt P07947)
SIK2 (human) = SIK2 (human) (UniProt Q9H0K1)
MAPK10 (human) = MAPK10 (human) (UniProt P53779)

LRRK2 (human), sequence (Q5S007 whole entry, looked up): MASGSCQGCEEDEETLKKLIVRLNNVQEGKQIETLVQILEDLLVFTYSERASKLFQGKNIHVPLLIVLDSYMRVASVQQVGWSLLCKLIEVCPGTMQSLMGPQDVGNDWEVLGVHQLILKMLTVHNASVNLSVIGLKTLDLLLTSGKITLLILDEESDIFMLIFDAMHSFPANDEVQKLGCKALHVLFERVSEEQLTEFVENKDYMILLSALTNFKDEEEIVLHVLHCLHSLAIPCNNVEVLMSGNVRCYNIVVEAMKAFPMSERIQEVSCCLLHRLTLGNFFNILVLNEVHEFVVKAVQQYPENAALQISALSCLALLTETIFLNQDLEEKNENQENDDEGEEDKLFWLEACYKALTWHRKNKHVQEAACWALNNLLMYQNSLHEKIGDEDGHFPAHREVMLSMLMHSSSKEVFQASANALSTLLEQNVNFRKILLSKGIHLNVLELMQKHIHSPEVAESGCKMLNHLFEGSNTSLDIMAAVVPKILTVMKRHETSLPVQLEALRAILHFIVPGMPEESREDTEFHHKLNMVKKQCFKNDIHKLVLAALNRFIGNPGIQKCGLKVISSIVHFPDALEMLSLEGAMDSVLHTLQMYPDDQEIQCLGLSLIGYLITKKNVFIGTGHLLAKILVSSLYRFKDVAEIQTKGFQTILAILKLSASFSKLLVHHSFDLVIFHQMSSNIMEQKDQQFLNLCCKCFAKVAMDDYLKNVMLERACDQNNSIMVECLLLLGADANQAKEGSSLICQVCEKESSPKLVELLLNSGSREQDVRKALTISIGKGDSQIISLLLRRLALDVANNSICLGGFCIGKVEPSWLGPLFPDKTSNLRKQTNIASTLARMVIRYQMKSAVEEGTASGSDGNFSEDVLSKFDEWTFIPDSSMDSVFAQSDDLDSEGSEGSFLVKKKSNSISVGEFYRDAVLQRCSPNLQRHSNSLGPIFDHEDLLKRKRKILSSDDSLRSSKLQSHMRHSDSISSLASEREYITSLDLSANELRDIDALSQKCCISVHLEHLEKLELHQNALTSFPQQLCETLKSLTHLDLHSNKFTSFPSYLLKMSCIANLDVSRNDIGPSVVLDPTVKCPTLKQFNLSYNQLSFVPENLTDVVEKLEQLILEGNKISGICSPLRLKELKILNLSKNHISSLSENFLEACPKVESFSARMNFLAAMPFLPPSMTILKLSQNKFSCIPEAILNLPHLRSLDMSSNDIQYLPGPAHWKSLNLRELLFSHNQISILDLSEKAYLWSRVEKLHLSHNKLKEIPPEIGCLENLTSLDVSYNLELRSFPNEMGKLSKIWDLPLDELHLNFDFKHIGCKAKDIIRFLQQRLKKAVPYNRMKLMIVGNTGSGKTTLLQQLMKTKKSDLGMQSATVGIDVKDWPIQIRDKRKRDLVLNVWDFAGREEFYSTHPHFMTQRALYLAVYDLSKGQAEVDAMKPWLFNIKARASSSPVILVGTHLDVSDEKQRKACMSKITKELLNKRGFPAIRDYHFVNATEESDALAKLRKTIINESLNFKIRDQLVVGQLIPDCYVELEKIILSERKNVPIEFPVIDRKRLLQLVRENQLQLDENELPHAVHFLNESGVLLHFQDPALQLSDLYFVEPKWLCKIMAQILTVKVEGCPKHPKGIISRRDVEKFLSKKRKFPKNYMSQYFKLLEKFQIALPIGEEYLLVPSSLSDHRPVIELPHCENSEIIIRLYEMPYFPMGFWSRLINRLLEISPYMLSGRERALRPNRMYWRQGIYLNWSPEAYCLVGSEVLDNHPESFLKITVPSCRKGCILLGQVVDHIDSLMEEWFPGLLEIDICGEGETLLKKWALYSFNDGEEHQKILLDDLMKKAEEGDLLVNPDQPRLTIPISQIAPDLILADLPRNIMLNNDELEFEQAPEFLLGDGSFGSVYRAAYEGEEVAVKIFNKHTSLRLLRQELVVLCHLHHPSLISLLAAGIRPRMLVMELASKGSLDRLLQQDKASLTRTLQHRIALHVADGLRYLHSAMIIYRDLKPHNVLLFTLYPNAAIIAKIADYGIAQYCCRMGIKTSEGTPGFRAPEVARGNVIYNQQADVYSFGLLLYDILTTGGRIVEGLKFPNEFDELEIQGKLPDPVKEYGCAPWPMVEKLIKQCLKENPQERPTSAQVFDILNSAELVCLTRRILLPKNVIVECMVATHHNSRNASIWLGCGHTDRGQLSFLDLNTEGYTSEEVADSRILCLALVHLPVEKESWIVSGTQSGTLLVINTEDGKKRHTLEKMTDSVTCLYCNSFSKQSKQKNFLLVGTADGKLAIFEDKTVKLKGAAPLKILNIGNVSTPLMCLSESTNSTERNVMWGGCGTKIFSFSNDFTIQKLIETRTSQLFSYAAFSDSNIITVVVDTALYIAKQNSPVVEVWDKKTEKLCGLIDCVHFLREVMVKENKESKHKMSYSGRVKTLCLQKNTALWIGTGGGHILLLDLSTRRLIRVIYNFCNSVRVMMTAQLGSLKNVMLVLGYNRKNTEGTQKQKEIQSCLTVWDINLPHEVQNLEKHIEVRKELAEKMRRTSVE
NLK (human), sequence (Q9UBE8 whole entry, looked up): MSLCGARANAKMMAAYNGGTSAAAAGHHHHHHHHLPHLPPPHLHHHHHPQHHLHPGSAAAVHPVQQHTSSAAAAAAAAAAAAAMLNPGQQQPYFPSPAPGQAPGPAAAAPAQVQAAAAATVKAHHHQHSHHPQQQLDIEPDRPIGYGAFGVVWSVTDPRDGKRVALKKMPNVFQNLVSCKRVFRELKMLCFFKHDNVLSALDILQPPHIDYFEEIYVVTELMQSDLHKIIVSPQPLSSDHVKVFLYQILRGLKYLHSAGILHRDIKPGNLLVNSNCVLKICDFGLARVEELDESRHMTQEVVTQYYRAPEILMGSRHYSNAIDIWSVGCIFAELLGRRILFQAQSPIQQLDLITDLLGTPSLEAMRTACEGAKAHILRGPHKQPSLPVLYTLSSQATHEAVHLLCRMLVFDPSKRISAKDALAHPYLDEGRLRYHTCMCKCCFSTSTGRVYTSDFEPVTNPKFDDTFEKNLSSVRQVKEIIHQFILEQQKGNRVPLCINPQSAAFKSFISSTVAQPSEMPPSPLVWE
MST1R (human), sequence (Q04912 whole entry, looked up): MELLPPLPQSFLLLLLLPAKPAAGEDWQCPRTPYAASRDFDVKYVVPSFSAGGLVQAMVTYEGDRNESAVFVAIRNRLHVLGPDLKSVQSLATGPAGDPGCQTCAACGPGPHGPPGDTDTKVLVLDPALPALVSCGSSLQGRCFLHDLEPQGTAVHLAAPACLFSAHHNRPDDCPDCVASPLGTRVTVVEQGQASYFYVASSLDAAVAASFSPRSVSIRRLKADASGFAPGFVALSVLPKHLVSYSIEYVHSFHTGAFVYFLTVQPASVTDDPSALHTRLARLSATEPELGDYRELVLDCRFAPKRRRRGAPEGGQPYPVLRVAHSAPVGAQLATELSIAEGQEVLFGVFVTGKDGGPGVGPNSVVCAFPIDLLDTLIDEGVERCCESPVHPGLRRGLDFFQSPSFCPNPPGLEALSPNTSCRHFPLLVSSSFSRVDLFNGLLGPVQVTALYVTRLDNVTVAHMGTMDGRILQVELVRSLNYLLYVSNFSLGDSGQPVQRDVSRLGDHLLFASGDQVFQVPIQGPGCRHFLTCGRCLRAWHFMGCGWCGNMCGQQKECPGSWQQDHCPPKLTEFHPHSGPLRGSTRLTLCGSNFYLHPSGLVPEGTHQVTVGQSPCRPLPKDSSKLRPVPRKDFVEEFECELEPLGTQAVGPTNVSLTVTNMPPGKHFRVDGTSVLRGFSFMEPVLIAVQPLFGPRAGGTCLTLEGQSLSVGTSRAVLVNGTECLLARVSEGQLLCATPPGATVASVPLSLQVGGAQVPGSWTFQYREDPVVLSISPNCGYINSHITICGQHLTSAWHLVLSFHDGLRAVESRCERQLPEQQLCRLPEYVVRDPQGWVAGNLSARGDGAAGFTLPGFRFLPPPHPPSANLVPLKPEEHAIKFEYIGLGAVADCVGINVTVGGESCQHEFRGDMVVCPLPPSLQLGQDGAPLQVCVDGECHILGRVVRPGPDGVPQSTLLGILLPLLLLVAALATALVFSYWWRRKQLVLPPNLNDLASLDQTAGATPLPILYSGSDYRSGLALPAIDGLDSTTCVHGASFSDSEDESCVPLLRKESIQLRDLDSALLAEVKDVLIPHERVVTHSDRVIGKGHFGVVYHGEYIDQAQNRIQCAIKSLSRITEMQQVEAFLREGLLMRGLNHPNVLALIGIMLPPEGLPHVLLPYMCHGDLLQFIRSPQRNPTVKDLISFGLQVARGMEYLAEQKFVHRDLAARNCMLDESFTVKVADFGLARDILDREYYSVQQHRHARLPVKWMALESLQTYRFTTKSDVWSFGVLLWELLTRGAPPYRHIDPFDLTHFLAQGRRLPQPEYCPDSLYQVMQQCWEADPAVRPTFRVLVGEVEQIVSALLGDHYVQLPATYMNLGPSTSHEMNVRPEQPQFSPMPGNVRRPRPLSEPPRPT
CAMKK1 (human), sequence (Q8N5S9 whole entry, looked up): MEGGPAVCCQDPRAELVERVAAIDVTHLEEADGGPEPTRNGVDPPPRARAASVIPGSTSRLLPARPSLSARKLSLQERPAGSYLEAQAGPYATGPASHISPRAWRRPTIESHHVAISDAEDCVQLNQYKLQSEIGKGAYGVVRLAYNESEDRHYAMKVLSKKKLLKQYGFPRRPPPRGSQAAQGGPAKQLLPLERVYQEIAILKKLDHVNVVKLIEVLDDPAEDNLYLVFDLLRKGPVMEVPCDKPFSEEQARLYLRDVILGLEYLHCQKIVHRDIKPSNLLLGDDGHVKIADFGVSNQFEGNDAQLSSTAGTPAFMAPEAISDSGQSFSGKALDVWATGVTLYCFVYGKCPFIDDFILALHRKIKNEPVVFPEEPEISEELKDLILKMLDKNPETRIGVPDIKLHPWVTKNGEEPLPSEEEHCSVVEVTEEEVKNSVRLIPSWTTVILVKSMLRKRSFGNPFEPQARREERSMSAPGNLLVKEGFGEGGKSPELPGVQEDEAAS

C#Cc1cccc(Nc2ncnc3cc(OCCOC)c(OCCOC)cc23)c1
residual activity (TGFBR1 (human)): 99.1%
residual activity (PDPK1 (human)): 83.8%
residual activity (PKN1 (human)): 108%
residual activity (NEK2 (human)): 100%
residual activity (MELK (human)): 88.6%
residual activity (FGFR2 (human)): 83.4%
residual activity (WEE1 (human)): 95.2%
residual activity (SRMS (human)): 93.2%
residual activity (MAPK12 (human)): 97.8%
residual activity (MAPK14 (human)): 95.3%
residual activity (RPS6KA1 KD1 KD2 (human)): 97.6%
residual activity (MST1R (human)): 93.6%
residual activity (PTK2 (human)): 108%
residual activity (LTK (human)): 66.3%
residual activity (NEK11 (human)): 114%
residual activity (CSNK2A1 (human)): 78.9%
residual activity (CDK4 CCND1 (human)): 96%
residual activity (PRKCZ (human)): 92.3%
residual activity (CAMK4 (human)): 94.8%
residual activity (TAOK3 (human)): 106%
residual activity (TEK (human)): 94%
residual activity (GRK5 (human)): 100%
residual activity (MAP3K9 (human)): 111%
residual activity (SGK2 (human)): 107%
residual activity (CAMK1D (human)): 98.8%
residual activity (SRPK2 (human)): 101%
residual activity (PRKCB2 (human)): 98.6%
residual activity (RPS6KB2 (human)): 103%
residual activity (CSNK1G2 (human)): 98.3%
residual activity (CAMKK1 (human)): 98.7%
residual activity (NLK (human)): 103%
residual activity (TSSK1B (human)): 78.9%
residual activity (PAK4 (human)): 91.8%

O=C(NC(NC(=S)Nc1ccc(F)c([N+](=O)[O-])c1)C(Cl)(Cl)Cl)C(c1ccccc1)c1ccccc1 (stereo unspecified)
residual activity (TGFBR1 (human)): 92.6%
residual activity (HCK (human)): 107%
residual activity (PDPK1 (human)): 112%
residual activity (PKN1 (human)): 92.8%
residual activity (LRRK2 (human)): 99.3%
residual activity (NEK2 (human)): 112%
residual activity (MELK (human)): 102%
residual activity (FGFR2 (human)): 97.7%
residual activity (WEE1 (human)): 91.8%
residual activity (SRMS (human)): 96.9%
residual activity (MAPK14 (human)): 101%
residual activity (RPS6KA1 KD1 KD2 (human)): 105%
residual activity (MST1R (human)): 102%
residual activity (PTK2 (human)): 113%
residual activity (LTK (human)): 91.5%
residual activity (NEK11 (human)): 92.2%
residual activity (CSNK2A1 (human)): 95.4%
residual activity (WNK2 (human)): 117%
residual activity (CDK4 CCND1 (human)): 116%
residual activity (PRKCZ (human)): 98%
residual activity (TYRO3 (human)): 108%
residual activity (CAMK4 (human)): 98.5%
residual activity (TAOK3 (human)): 121%
residual activity (TEK (human)): 97.8%
residual activity (GRK5 (human)): 105%
residual activity (MAP3K9 (human)): 94%
residual activity (SGK2 (human)): 119%
residual activity (MAPK8 (human)): 82.1%
residual activity (CAMK1D (human)): 99%
residual activity (SRPK2 (human)): 103%
residual activity (PRKCB2 (human)): 107%
residual activity (DYRK2 (human)): 102%
residual activity (YES1 (human)): 94.6%
residual activity (RPS6KB2 (human)): 99.3%
residual activity (CSNK1G2 (human)): 98.3%
residual activity (SIK2 (human)): 112%
residual activity (CAMKK1 (human)): 128%
residual activity (NLK (human)): 106%
residual activity (TSSK1B (human)): 93.4%
residual activity (MAPK10 (human)): 96.2%
residual activity (PAK4 (human)): 118%

CSc1nc(-c2ccc(F)cc2)c(-c2ccnc(NC(C)c3ccccc3)c2)[nH]1 (stereo unspecified)
residual activity (TGFBR1 (human)): 93.3%
residual activity (HCK (human)): 83.5%
residual activity (PDPK1 (human)): 91.3%
residual activity (PKN1 (human)): 105%
residual activity (LRRK2 (human)): 100%
residual activity (NEK2 (human)): 89.9%
residual activity (MELK (human)): 94.2%
residual activity (FGFR2 (human)): 95.2%
residual activity (WEE1 (human)): 76.1%
residual activity (SRMS (human)): 104%
residual activity (MAPK14 (human)): 7.64%
residual activity (RPS6KA1 KD1 KD2 (human)): 99.4%
residual activity (MST1R (human)): 81.3%
residual activity (PTK2 (human)): 99.1%
residual activity (LTK (human)): 83.6%
residual activity (NEK11 (human)): 108%
residual activity (CSNK2A1 (human)): 100%
residual activity (WNK2 (human)): 118%
residual activity (CDK4 CCND1 (human)): 109%
residual activity (PRKCZ (human)): 111%
residual activity (TYRO3 (human)): 108%
residual activity (CAMK4 (human)): 106%
residual activity (TAOK3 (human)): 91.7%
residual activity (TEK (human)): 90.5%
residual activity (GRK5 (human)): 103%
residual activity (MAP3K9 (human)): 101%
residual activity (SGK2 (human)): 96.1%
residual activity (MAPK8 (human)): 86.3%
residual activity (CAMK1D (human)): 91.7%
residual activity (SRPK2 (human)): 94.4%
residual activity (PRKCB2 (human)): 101%
residual activity (DYRK2 (human)): 96.1%
residual activity (YES1 (human)): 91.8%
residual activity (RPS6KB2 (human)): 92.8%
residual activity (CSNK1G2 (human)): 75.6%
residual activity (SIK2 (human)): 97.2%
residual activity (CAMKK1 (human)): 104%
residual activity (NLK (human)): 30.7%
residual activity (TSSK1B (human)): 73.5%
residual activity (MAPK10 (human)): 125%
residual activity (PAK4 (human)): 96.4%

COc1ccc(-c2cnc3c(-c4ccsc4)cnn3c2)cc1
residual activity (TGFBR1 (human)): 98%
residual activity (HCK (human)): 81.9%
residual activity (PDPK1 (human)): 96%
residual activity (PKN1 (human)): 93.1%
residual activity (LRRK2 (human)): 68.1%
residual activity (NEK2 (human)): 90.2%
residual activity (MELK (human)): 73.6%
residual activity (FGFR2 (human)): 92.4%
residual activity (WEE1 (human)): 102%
residual activity (SRMS (human)): 97.4%
residual activity (MAPK12 (human)): 94.8%
residual activity (MAPK14 (human)): 120%
residual activity (RPS6KA1 KD1 KD2 (human)): 85.7%
residual activity (MST1R (human)): 91.6%
residual activity (PTK2 (human)): 93%
residual activity (LTK (human)): 98.9%
residual activity (NEK11 (human)): 93.3%
residual activity (CSNK2A1 (human)): 101%
residual activity (WNK2 (human)): 103%
residual activity (CDK4 CCND1 (human)): 69.8%
residual activity (PRKCZ (human)): 107%
residual activity (TYRO3 (human)): 91.8%
residual activity (CAMK4 (human)): 98.4%
residual activity (TAOK3 (human)): 96.9%
residual activity (TEK (human)): 99.1%
residual activity (GRK5 (human)): 97.4%
residual activity (MAP3K9 (human)): 65.6%
residual activity (SGK2 (human)): 96.7%
residual activity (MAPK8 (human)): 100%
residual activity (CAMK1D (human)): 93.5%
residual activity (SRPK2 (human)): 94.1%
residual activity (PRKCB2 (human)): 94.3%
residual activity (DYRK2 (human)): 71.1%
residual activity (YES1 (human)): 67.7%
residual activity (RPS6KB2 (human)): 100%
residual activity (CSNK1G2 (human)): 82.3%
residual activity (SIK2 (human)): 79.4%
residual activity (CAMKK1 (human)): 79.2%
residual activity (NLK (human)): 74.5%
residual activity (TSSK1B (human)): 99.1%
residual activity (PAK4 (human)): 72.5%

CCN1/C(=C/C(C)=O)Sc2ccc(OC)cc21
residual activity (TGFBR1 (human)): 94.2%
residual activity (HCK (human)): 97.5%
residual activity (PDPK1 (human)): 97.5%
residual activity (PKN1 (human)): 100%
residual activity (LRRK2 (human)): 98.1%
residual activity (NEK2 (human)): 97.6%
residual activity (MELK (human)): 94.6%
residual activity (FGFR2 (human)): 97.1%
residual activity (WEE1 (human)): 102%
residual activity (SRMS (human)): 84.7%
residual activity (MAPK12 (human)): 99.8%
residual activity (MAPK14 (human)): 95.4%
residual activity (RPS6KA1 KD1 KD2 (human)): 94%
residual activity (MST1R (human)): 94.5%
residual activity (PTK2 (human)): 108%
residual activity (LTK (human)): 87.1%
residual activity (NEK11 (human)): 104%
residual activity (CSNK2A1 (human)): 98.1%
residual activity (WNK2 (human)): 91.1%
residual activity (CDK4 CCND1 (human)): 92.1%
residual activity (PRKCZ (human)): 98%
residual activity (CAMK4 (human)): 99.9%
residual activity (TAOK3 (human)): 95.6%
residual activity (TEK (human)): 102%
residual activity (GRK5 (human)): 108%
residual activity (MAP3K9 (human)): 98.8%
residual activity (SGK2 (human)): 93.7%
residual activity (MAPK8 (human)): 102%
residual activity (CAMK1D (human)): 105%
residual activity (SRPK2 (human)): 95.8%
residual activity (PRKCB2 (human)): 99.3%
residual activity (DYRK2 (human)): 19.5%
residual activity (YES1 (human)): 91.8%
residual activity (RPS6KB2 (human)): 107%
residual activity (SIK2 (human)): 116%
residual activity (CAMKK1 (human)): 105%
residual activity (NLK (human)): 103%
residual activity (TSSK1B (human)): 110%
residual activity (MAPK10 (human)): 102%
residual activity (PAK4 (human)): 108%
